# Experimental data: patent publication US20260125360A1, “HERBICIDAL IMIDAZOLE COMPOUNDS” (SYNGENTA CROP PROTECTION AG, priority 2022, published 2026)
# Columns and labels:
# Format in all cases: in vivo
# Conditions in all cases: 250 g/ha, evaluated after 13 days
# [1] = test system: Amaranthus palmeri (AMAPA); test: Post-emergence herbicide glasshouse test
# Description: (§1) Seeds of a variety of test species are sown in standard soil in pots Amaranthus palmeri (AMAPA), Amaranthus retoflexus (AMARE), Echinochloa crus-galli (ECHCG), Ipomoea hederacea (IPOHE)). After cultivation for one day (pre-emergence) or after 8 days cultivation (post-emergence) under controlled conditions in a glasshouse (at 24/16° C., day/night; 14 hours light; 65% humidity), the plants are sprayed with an aqueous spray solution derived from the formulation of the technical active ingredient in acetone/water (50:50) solution containing 0.5% Tween 20 (polyoxyethelyene sorbitan monolaurate, CAS RN 9005-64-5). Compounds are applied at 250 g/ha unless otherwise stated. The test plants are then grown in a glasshouse under controlled conditions in a glasshouse (at 24/16° C., day/night; 14 hours light; 65% humidity) and watered twice daily. After 13 days for pre and post-emergence, the test is evaluated for the percentage damage caused to the plant. The biological activities are shown in the following table on a five-point scale (5=81-100%; 4=61-80%; 3=41-60%; 2=21-40%; 1=0-20%).
# [2] = test system: Amaranthus retoflexus (AMARE); test: Post-emergence herbicide glasshouse test
# Description: as §1
# [3] = test system: Echinochloa crus-galli (ECHCG); test: Post-emergence herbicide glasshouse test
# Description: as §1
# [4] = test system: Ipomoea hederacea (IPOHE); test: Post-emergence herbicide glasshouse test
# Description: as §1
# [5] = test system: Amaranthus palmeri (AMAPA); test: Pre-emergence herbicide glasshouse test
# Description: as §1
# [6] = test system: Amaranthus retoflexus (AMARE); test: Pre-emergence herbicide glasshouse test
# Description: as §1
# [7] = test system: Echinochloa crus-galli (ECHCG); test: Pre-emergence herbicide glasshouse test
# Description: as §1
# [8] = test system: Ipomoea hederacea (IPOHE); test: Pre-emergence herbicide glasshouse test
# Description: as §1
SMILES,"percentage damage caused to the plant, AMAPA (five-point scale) [1]","percentage damage caused to the plant, AMARE (five-point scale) [2]","percentage damage caused to the plant, ECHCG (five-point scale) [3]","percentage damage caused to the plant, IPOHE (five-point scale) [4]","percentage damage caused to the plant, AMAPA (five-point scale) [5]","percentage damage caused to the plant, AMARE (five-point scale) [6]","percentage damage caused to the plant, ECHCG (five-point scale) [7]","percentage damage caused to the plant, IPOHE (five-point scale) [8]"
Cn1cc(Cn2cc(C(F)(F)F)nc2-c2ccc(C(F)(F)F)cc2)c(C(F)(F)F)n1 [Compound 1.014],1 (1=0-20%),1 (1=0-20%),1 (1=0-20%),1 (1=0-20%),1 (1=0-20%),1 (1=0-20%),1 (1=0-20%),1 (1=0-20%)
"Cn1cnc(Cn2cc(C(F)F)nc2-c2cnc(Cl)c(F)c2)n1 [Compound 1.015, 2-chloro-5-[4-(difluoromethyl)-1-[(1-methyl-1,2,4-triazol-3-yl)methyl]imidazol-2-yl]-3-fluoro-pyridine]",5 (5=81-100%),5 (5=81-100%),3 (3=41-60%),5 (5=81-100%),5 (5=81-100%),5 (5=81-100%),4 (4=61-80%),5 (5=81-100%)
Cc1nnc(Cn2cc(C(F)F)nc2-c2cnc(Cl)c(F)c2)s1 [Compound 1.016],1 (1=0-20%),1 (1=0-20%),1 (1=0-20%),1 (1=0-20%),4 (4=61-80%),5 (5=81-100%),1 (1=0-20%),1 (1=0-20%)
Cc1nnc(Cn2cc(C(F)(F)F)nc2-c2cnc(Cl)c(F)c2)s1 [Compound 1.017],5 (5=81-100%),5 (5=81-100%),2 (2=21-40%),1 (1=0-20%),5 (5=81-100%),5 (5=81-100%),4 (4=61-80%),5 (5=81-100%)
Cn1cnc(Cn2cc(C(F)(F)F)nc2-c2cnc(Cl)c(F)c2)n1 [Compound 1.018],5 (5=81-100%),5 (5=81-100%),5 (5=81-100%),4 (4=61-80%),5 (5=81-100%),5 (5=81-100%),5 (5=81-100%),5 (5=81-100%)
Cn1cnc(Cn2cc(C(F)(F)F)nc2-c2ccc(F)c(F)c2)n1 [Compound 1.020],5 (5=81-100%),5 (5=81-100%),5 (5=81-100%),4 (4=61-80%),5 (5=81-100%),5 (5=81-100%),5 (5=81-100%),5 (5=81-100%)
Cc1nnc(Cn2cc(C(F)(F)F)nc2-c2ccc(F)c(F)c2)s1 [Compound 1.021],5 (5=81-100%),5 (5=81-100%),4 (4=61-80%),4 (4=61-80%),5 (5=81-100%),5 (5=81-100%),5 (5=81-100%),5 (5=81-100%)
Cc1cc(Cn2cc(C(F)F)nc2-c2cnc(Cl)c(F)c2)no1 [Compound 1.024],5 (5=81-100%),5 (5=81-100%),2 (2=21-40%),4 (4=61-80%),5 (5=81-100%),5 (5=81-100%),4 (4=61-80%),5 (5=81-100%)
Cc1cc(Cn2cc(C(F)(F)F)nc2-c2cnc(Cl)c(F)c2)no1 [Compound 1.025],4 (4=61-80%),5 (5=81-100%),4 (4=61-80%),2 (2=21-40%),5 (5=81-100%),5 (5=81-100%),4 (4=61-80%),4 (4=61-80%)
Cn1ccc(Cn2cc(C(F)(F)F)nc2-c2cnc(Cl)c(F)c2)n1 [Compound 1.026],4 (4=61-80%),4 (4=61-80%),3 (3=41-60%),4 (4=61-80%),5 (5=81-100%),5 (5=81-100%),4 (4=61-80%),5 (5=81-100%)
Cc1cc(Cn2cc(C(F)(F)F)nc2-c2cnc(Cl)c(F)c2)ns1 [Compound 1.027],4 (4=61-80%),4 (4=61-80%),4 (4=61-80%),4 (4=61-80%),5 (5=81-100%),5 (5=81-100%),3 (3=41-60%),4 (4=61-80%)
Fc1cc(-c2nc(C(F)(F)F)cn2Cc2cc(C3CC3)on2)cnc1Cl [Compound 1.028],3 (3=41-60%),4 (4=61-80%),1 (1=0-20%),1 (1=0-20%),5 (5=81-100%),5 (5=81-100%),1 (1=0-20%),4 (4=61-80%)
Cc1cnc(Cn2cc(C(F)(F)F)nc2-c2ccc(Cl)nc2)s1 [Compound 1.034],5 (5=81-100%),5 (5=81-100%),5 (5=81-100%),4 (4=61-80%),5 (5=81-100%),5 (5=81-100%),5 (5=81-100%),5 (5=81-100%)
Cc1cc(Cn2cc(C(F)(F)F)nc2-c2ccc(Cl)nc2)nn1C [Compound 1.044],4 (4=61-80%),4 (4=61-80%),1 (1=0-20%),4 (4=61-80%),5 (5=81-100%),5 (5=81-100%),1 (1=0-20%),1 (1=0-20%)
Cn1ccc(Cn2cc(C(F)(F)F)nc2-c2ccc(Cl)nc2)n1 [Compound 1.045],5 (5=81-100%),5 (5=81-100%),1 (1=0-20%),4 (4=61-80%),5 (5=81-100%),5 (5=81-100%),1 (1=0-20%),5 (5=81-100%)
